Results from ChEMBL document CHEMBL6092168, “Identification of novel indolinone derivatives as CTSC inhibitors to treat inflammatory bowel disease by modulating inflammatory factors” (Eur J Med Chem, 2024).
Calls of active or inactive are those of the source. The rule behind the calls is not given here.

Legend:
Mus musculus [1] = experiment: Anti-inflammatory activity in DSS-induced ulcerative colitis male C57BL/6 mouse model assessed as reduction in cathepsin G level in colon at 15 to 30 mg/kg administered via gavage for 10 days; type: functional, organism-based; details: dose 15-30 mg/kg, time 10.0 day
Mus musculus [2] = experiment: Anti-inflammatory activity in DSS-induced ulcerative colitis male C57BL/6 mouse model assessed as reduction in Cathepsin G level in serum at 60 mg/kg administered via gavage for 10 days relative to control; type: functional; parameters: scale not given: the % may be the effect or the level left; details: time 10 day
[3] = molecular target: T1, Cathepsin G (Homo sapiens) (UniProt P08311); experiment: Inhibition of Cathepsin G in human U-937 cells using N-Suc-Ala-Ala-Pro-Phe-pNA as substrate at 10 uM incubated for 5 days by […] based microplate reader analysis relative to control; type: cell-based; details: time 5.0 day
T1 sequence (whole entry): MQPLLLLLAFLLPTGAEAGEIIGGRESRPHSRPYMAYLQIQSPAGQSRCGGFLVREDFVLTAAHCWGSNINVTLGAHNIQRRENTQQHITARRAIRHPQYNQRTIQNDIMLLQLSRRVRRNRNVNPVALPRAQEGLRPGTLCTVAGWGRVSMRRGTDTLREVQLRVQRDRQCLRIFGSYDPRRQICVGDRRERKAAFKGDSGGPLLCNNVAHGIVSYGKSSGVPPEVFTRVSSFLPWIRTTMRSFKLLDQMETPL

Mus musculus [4] = experiment: Anti-inflammatory activity in DSS-induced ulcerative colitis male C57BL/6 mouse model assessed as reduction in proteinase 3 level in colon at 60 mg/kg administered via gavage for 10 days relative to control; type: functional; parameters: scale not given: the % may be the effect or the level left; details: time 10 day
Mus musculus [5] = experiment: Anti-inflammatory activity in DSS-induced ulcerative colitis male C57BL/6 mouse model assessed as reduction in IL-6 expression in colon administered via gavage for 10 days by ELISA; type: functional, organism-based; details: dose 15-60 mg/kg, time 10.0 day
Mus musculus [6] = experiment: Anti-inflammatory activity in DSS-induced ulcerative colitis male C57BL/6 mouse model assessed as reduction in Cathepsin C level in colon at 15 to 30 mg/kg administered via gavage for 10 days; type: functional, organism-based; details: dose 15-30 mg/kg, time 10.0 day
[7] = Acute toxicity in ICR mouse assessed as change in white blood cell count in bone marrow at 1500 mg/kg, po administered daily for 7 days; type: organism-based; details: in vivo, 168 h, time 7 day
RAW264.7 = experiment: Anti-inflammatory activity in LPS-stimulated mouse RAW264.7 cells assessed as reduction in GM-CSF production incubated for 24 hrs by ELISA; type: functional, cell-based; details: dose 0.62-5 µM
[8] = Half life in male Sprague-Dawley rat at 2 mg/kg, iv measured at 5 to 1440 mins by LC-MS/MS analysis; type: ADME, organism-based; details: in vivo, time 5-1440 min
[9] = Acute toxicity in ICR mouse assessed as lung pathological change at 1500 mg/kg, po administered daily for 7 days by H and E staining based analysis; type: organism-based; details: in vivo, 168 h, time 7 day
Mus musculus [10] = experiment: Anti-inflammatory activity in DSS-induced ulcerative colitis male C57BL/6 mouse model assessed as reduction in Cathepsin C level in serum at 60 mg/kg administered via gavage for 10 days relative to control; type: functional; parameters: scale not given: the % may be the effect or the level left; details: time 10 day
Mus musculus [11] = experiment: Anti-inflammatory activity in DSS-induced ulcerative colitis male C57BL/6 mouse model assessed as reduction in GM-CSF expression in serum administered via gavage for 10 days by ELISA; type: functional, organism-based; details: dose 15-60 mg/kg, time 10.0 day
Mus musculus [12] = experiment: Anti-inflammatory activity in DSS-induced ulcerative colitis C57BL/6 mouse model assessed as effect on inflammatory factors at 60 mg/kg, administered twice daily; type: functional, organism-based
[13] = molecular target: T2, Cathepsin G (Mus musculus) (UniProt P28293); experiment: Induction of Cathepsin G degradation in C57BL/6 mouse bone marrow cells assessed as remaining activity at 10 uM incubated for 12 hrs by Western blot analysis relative to control; type: cell-based; details: Bone marrow cell
T2 sequence (whole entry): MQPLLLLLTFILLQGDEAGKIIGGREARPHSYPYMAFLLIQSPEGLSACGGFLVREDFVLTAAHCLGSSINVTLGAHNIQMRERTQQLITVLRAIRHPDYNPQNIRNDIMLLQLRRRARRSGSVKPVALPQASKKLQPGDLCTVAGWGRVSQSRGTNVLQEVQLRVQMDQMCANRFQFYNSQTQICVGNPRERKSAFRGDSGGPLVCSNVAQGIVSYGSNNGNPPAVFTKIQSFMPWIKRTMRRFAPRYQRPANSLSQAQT

[14] = molecular target: T2, Cathepsin G (Mus musculus); experiment: In vivo inhibition of Cathepsin G in C57BL/6 mouse assessed as reduction in cathepsin G activity in bone marrow administered orally once daily for 6 days by fluorescence based microplate reader; type: functional, organism-based; details: dose 5-30 mg/kg, route po, time 6.0 day
[15] = molecular target: T2, Cathepsin G (Mus musculus); experiment: Induction of Cathepsin G degradation in C57BL/6 mouse bone marrow cells at 10 uM incubated for 24 hrs by Western blot analysis; type: cell-based; details: Bone marrow cell
Mus musculus [16] = experiment: Anti-inflammatory activity in DSS-induced ulcerative colitis male C57BL/6 mouse model at 60 mg/kg administered twice daily; type: functional, organism-based
[17] = AUC (0 to infinity) in male Sprague-Dawley rat at 2 mg/kg, iv measured at 5 to 1440 mins by LC-MS/MS analysis; type: ADME, organism-based; details: in vivo, time 5-1440 min
[18] = Acute toxicity in ICR mouse assessed as change in white blood cell count in blood at 1500 mg/kg, po administered daily for 7 days; type: organism-based; details: in vivo, 168 h, time 7 day
[19] = Apparent permeability in human Caco-2 cells incubated for 90 min by LC-MS/MS analysis; type: ADME, cell-based
Dipeptidyl peptidase 1 = Dipeptidyl peptidase 1 (Homo sapiens, UniProt P53634); experiment: Induction of thermal stabilization of Cathepsin C in human U-937 cell incubated for 1 hrs at 37 to 65 degreeC by CETSA based Western blot analysis; details: dose 10-20 µM
Sequence of Dipeptidyl peptidase 1 (P53634 25-134 limits assumed): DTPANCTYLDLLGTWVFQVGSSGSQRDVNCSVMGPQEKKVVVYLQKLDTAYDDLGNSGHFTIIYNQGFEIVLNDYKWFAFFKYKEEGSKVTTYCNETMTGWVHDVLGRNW
Sequence of Dipeptidyl peptidase 1 (P53634 231-394 limits assumed): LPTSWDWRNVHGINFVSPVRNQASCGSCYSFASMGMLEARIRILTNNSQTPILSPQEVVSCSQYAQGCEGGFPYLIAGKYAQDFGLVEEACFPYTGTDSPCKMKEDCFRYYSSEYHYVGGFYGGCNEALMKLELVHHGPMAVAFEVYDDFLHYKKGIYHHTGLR
Sequence of Dipeptidyl peptidase 1 (P53634 395-463 limits assumed): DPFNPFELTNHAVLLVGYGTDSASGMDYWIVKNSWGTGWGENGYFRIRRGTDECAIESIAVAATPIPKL

Mus musculus [20] = experiment: Anti-inflammatory activity in DSS-induced ulcerative colitis male C57BL/6 mouse model assessed as reduction in neutrophil elastase level in serum at 60 mg/kg administered via gavage for 10 days relative to control; type: functional; parameters: scale not given: the % may be the effect or the level left; details: time 10 day
[21] = molecular target: T3, Neutrophil elastase (Homo sapiens) (UniProt P08246); experiment: Inhibition of neutrophil elastase in human U-937 cells using N-MeSuc-Ala-Pro-Val-pNA as substrate at 10 uM incubated for 5 days by […] based microplate reader analysis relative to control; type: cell-based; details: time 5.0 day
T3 sequence (whole entry): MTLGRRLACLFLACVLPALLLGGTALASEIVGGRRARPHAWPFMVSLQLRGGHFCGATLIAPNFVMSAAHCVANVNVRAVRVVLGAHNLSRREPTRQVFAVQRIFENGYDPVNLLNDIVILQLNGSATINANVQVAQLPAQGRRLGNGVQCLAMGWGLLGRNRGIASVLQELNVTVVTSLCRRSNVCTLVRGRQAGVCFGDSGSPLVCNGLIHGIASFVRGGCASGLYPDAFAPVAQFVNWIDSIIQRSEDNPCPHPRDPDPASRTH

In the case of `O=C1Nc2c(cccc2-c2ccc(NC3CCOCC3)cc2)/C1=C/c1ccnc2ccccc12`, the Activity (Mus musculus [1]) is reported as “inactive”, the Activity (Mus musculus [2]) is reported as 40% and the inhibition [3] is reported as 17.2%. The Activity (Mus musculus [4]) was 47%, the Activity (Mus musculus [5]) was “Dose-dependent-effect; Significant Reduction Observed In High Dose Group” and the Activity (Mus musculus [6]) was “inactive”. The Activity [7] was “Non-toxic”, the Activity (RAW264.7) was “Dose-dependent-effect” and the t1/2 [8] was 2.26 h. The Activity [9] was “Non-toxic”, the Activity (Mus musculus [10]) was 37% and the Activity (Mus musculus [11]) was “Dose-dependent-effect; Significant Reduction Observed In High Dose Group”. For the same compound, the Activity (Mus musculus [12]) was “Active”, the Activity [13] was 75% and the inhibition [14] was “Dose-dependent-effect”. The Activity [15] was “Active”, the Activity (Mus musculus [16]) was “Active; Therapeutic Effect Is Slightly Better Than 5-Asa But Worse Than Azd7986” and the AUC [17] was 915.64 ng·h/mL. The Activity [18] was “Non-toxic”, the Papp at 1.5 h [19] was 3.2 ×10⁻⁶ cm/s and the Activity (Dipeptidyl peptidase 1) was “Dose-dependent-effect; Significant Thermal Stability Observed”. The Activity (Mus musculus [20]) was 52% and the inhibition [21] was 24.5%.
